Measured values from patent publication US20040006236A1, “Diaminopropionic acid derivatives” (priority 1999, published 2004).
Read-outs that look alike come from different tables or passages of the source.

How the values were obtained:
[1] = target: T1, ICAM-1 binding to immobilized Mac-1 (Homo sapiens, UniProt P05107+P11215); experiment: Mac-1/ICAM-1 screening assay (solid-phase ELISA)
T1 construct: made in house; host or cells: transfected 293 cells (Mac-1)
Method: (b) Mac-1/ICAM-1 screening test: Mac-1/ICAM-1 antagonist activity, defined as the ability to compete with ICAM-1 binding to immobilized Mac-1, was quantitated by a solid-phase ELISA.
(§1) Membrane-bound Mac-1 derived from transfected 293 cells was coated onto 96-well microtiter plates (50 μL/well, 3 μg/mL Mac-1 in 20 mM Hepes, pH 7.2/0.14 M NaCl/1 mM MnCl2) overnight at 4° C. The plates were blocked with 100 μL/well of 0.5% BSA in 20 mM Hepes, pH 7.2/0.14 M NaCl/1 mM MnCl2 at 37° C. for 1 h and washed 3 times (120 μL each) with Binding Buffer (20 mM Hepes, pH 7.2/0.14 M NaCl/1 mM MnCl2/0.05% Tween 20). Test compounds were dissolved in 100% DMSO and diluted 1:50 in Binding Buffer plus 10% DMSO. A series of 1:4 dilutions were performed for each compound (concentration range, 0.12 nM-20 μM). Each dilution (25 μL/well) was added to the plates, followed by 25 μL/well of 5 dICAM-Ig (40 μg/mL in Binding Buffer). The plates were shaken vigorously for 1 min (room temperature), followed by gentle agitation for 2 h (37° C.), and washed with Binding Buffer (3 times, 120 μL each). HRP-conjugated goat anti-human IgG(Fc-specific) antibody (0.125 μg/mL in Binding Buffer plus 0.05% BSA) was added to each well (50 μL/well), followed by incubation for 1 h at 37° C. The plates were then washed 3 times with Binding Buffer (120 μL each). TMB solution (100 μL/well) was added to each well for color development for 10 min. The reaction was stopped with 1 M H3PO4 (100 μL/well) and the plates were read at 450 nm. The inhibitory activities of test compounds were determined by the IC50s.
as §1, with “Mac-1/ICAM-1 antagonist activity, defined as the ability to compete with ICAM-1 binding to immobilized Mac-1, was quantitated by a solid-phase ELISA. Membrane-bound” for “Membrane-bound”, “5dICAM-Ig” for “5 dICAM-Ig”, “nm.” for “nm. The inhibitory activities of test compounds were determined by the IC50s.”

[2] = system: T lymphocyte proliferation (C57BI/6 spleen cells with irradiated BALB/c spleen cells); experiment: Mixed lymphocyte reaction (MLR), one-way; assay type: cell-based, mice
How it was run: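 One-way murine MLR: C57BI/6 responder splenocytes proliferate against irradiated BALB/c stimulators while exposed to serially diluted antagonists in supplemented RPMI1640 for 3 days. Proliferation read as [3H]-thymidine uptake over a final 6 h pulse (0.5 μCi/well), scintillation counted.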

[3] = read-out: Mac-1/ICAM-1 Protein-Protein Assay IC50
[4] = Mus musculus, T-lymphocyte; read-out: MLR IC50
[5] = Mac-1/ICAM-1 Protein-Protein Assay IC50
[6] = Mus musculus, T-lymphocyte, read-out: MLR IC50

T1 sequence (P05107 23-769, other chains not shown): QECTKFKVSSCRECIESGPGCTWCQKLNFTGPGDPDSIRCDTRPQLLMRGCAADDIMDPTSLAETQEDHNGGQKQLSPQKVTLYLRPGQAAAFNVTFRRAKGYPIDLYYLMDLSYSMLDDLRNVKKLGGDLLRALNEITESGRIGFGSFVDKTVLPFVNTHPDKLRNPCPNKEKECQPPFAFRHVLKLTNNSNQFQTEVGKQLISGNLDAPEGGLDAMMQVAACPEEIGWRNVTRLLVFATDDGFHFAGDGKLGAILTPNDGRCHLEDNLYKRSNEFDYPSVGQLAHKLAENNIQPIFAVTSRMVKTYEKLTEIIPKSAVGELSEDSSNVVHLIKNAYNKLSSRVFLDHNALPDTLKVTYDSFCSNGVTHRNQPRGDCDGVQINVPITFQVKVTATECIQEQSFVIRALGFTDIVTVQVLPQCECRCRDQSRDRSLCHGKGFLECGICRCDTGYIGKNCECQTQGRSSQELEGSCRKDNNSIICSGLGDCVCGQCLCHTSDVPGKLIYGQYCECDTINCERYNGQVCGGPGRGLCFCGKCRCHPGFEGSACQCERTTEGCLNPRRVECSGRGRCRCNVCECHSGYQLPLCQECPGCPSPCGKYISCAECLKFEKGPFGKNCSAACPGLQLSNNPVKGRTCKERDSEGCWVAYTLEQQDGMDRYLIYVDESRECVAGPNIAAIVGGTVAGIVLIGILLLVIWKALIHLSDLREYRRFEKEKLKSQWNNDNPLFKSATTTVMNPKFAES

IC50 [1, 3] [nM]	SMILES	IC50 [2, 4] [nM]	IC50 [1, 5] [nM]	IC50 [2, 6] [nM]
94	O=C(CC1CCCCC1)NC[C@H](NC(=O)c1ccc(C(=O)NCc2cccc(O)c2)cc1Cl)C(=O)O [Example 78]	1020		
74	O=C(Cc1ccccc1)NC[C@H](NC(=O)c1ccc(C(=O)NCc2cccc(O)c2)cc1Cl)C(=O)O [Example 79]	2500		
134	COc1ccc(CC(=O)NC[C@H](NC(=O)c2ccc(C(=O)NCc3cccc(O)c3)cc2Cl)C(=O)O)cc1 [Example 80]	1800		
58	O=C(Cc1ccc([N+](=O)[O-])cc1)NC[C@H](NC(=O)c1ccc(C(=O)NCc2cccc(O)c2)cc1Cl)C(=O)O [Example 81]	1650		
62	O=C(Cc1cccc(C(F)(F)F)c1)NC[C@H](NC(=O)c1ccc(C(=O)NCc2cccc(O)c2)cc1Cl)C(=O)O [Example 82]	1700		
	O=C(Cc1ccc([N+](=O)[O-])cc1[N+](=O)[O-])NC[C@H](NC(=O)c1ccc(C(=O)NCc2cccc(O)c2)cc1Cl)C(=O)O [Example 83]		58	460
60	O=C(Cc1cccs1)NC[C@H](NC(=O)c1ccc(C(=O)NCc2cccc(O)c2)cc1Cl)C(=O)O [Example 84]	1300		
179	O=C(NCc1cccc(O)c1)c1ccc(C(=O)N[C@@H](CNC(=O)C(c2ccccc2)c2ccccc2)C(=O)O)c(Cl)c1 [Example 86]	4150		
87	O=C(Cc1ccc2ccccc2c1)NC[C@H](NC(=O)c1ccc(C(=O)NCc2cccc(O)c2)cc1Cl)C(=O)O [Example 87]	1300		
273	O=C(CC1c2ccccc2-c2ccccc21)NC[C@H](NC(=O)c1ccc(C(=O)NCc2cccc(O)c2)cc1Cl)C(=O)O [Example 88]	12500		
464	O=C(C[n+]1csc2ccccc21)NC[C@H](NC(=O)c1ccc(C(=O)NCc2cccc(O)c2)cc1Cl)C(=O)O [Example 89]	10500		
29	O=C(CSc1ccncc1)NC[C@H](NC(=O)c1ccc(C(=O)NCc2cccc(O)c2)cc1Cl)C(=O)O [Example 90]	1450		
174	O=C(CSc1ncccn1)NC[C@H](NC(=O)c1ccc(C(=O)NCc2cccc(O)c2)cc1Cl)C(=O)O [Example 91]	2450		
48	CC(C)(C)C(=O)NC[C@H](NC(=O)c1ccc(C(=O)NCc2cccc(O)c2)cc1Cl)C(=O)O [Example 92]	900		
57	O=C(NCc1cccc(O)c1)c1ccc(C(=O)N[C@@H](CNC(=O)C23CC4CC(CC(C4)C2)C3)C(=O)O)c(Cl)c1 [Example 93]	525		
42	O=C(CCc1ccccc1)NC[C@H](NC(=O)c1ccc(C(=O)NCc2cccc(O)c2)cc1Cl)C(=O)O [Example 94]	1400		
	O=C(NCc1cccc(O)c1)c1ccc(C(=O)N[C@@H](CNC(=O)c2cc([N+](=O)[O-])cc([N+](=O)[O-])c2)C(=O)O)c(Cl)c1 [Example 129]		37	3000

IC50 [1, 3] [nM]	SMILES	IC50 [2, 4] [nM]	IC50 [1, 5] [nM]	IC50 [2, 6] [nM]
116	O=C(NCc1cccc(O)c1)c1ccc(C(=O)N[C@@H](CNC(=O)c2cnccn2)C(=O)O)c(Cl)c1 [Example 170]	560		
417	O=C(NCc1cccc(O)c1)c1ccc(C(=O)N[C@@H](CNC(=O)c2c3c(nc4ccccc24)CCCC3)C(=O)O)c(Cl)c1 [Example 190]			
273	O=C(NC[C@H](NC(=O)c1c(F)cccc1Cl)C(=O)O)c1ccc2[nH]nnc2c1 [Example 226]			
	O=C(NCc1cccc(O)c1)c1ccc(C(=O)N[C@@H](CNC(=O)c2ccoc2)C(=O)O)c(Cl)c1 [Example 259, N-[2-chloro-4-[[[(3-hydroxyphenyl)methyl]amino]carbonyl]benzoyl]-3-(furan-3-carbonyl)amino-L-alanine]	260		
	Cc1cc(C(=O)NCc2cccc(O)c2)ccc1C(=O)N[C@@H](CNC(=O)c1cccs1)C(=O)O [Example 323]	325		
	O=C(NCc1cccc2[nH]ncc12)c1ccc(C(=O)N[C@@H](CNC(=O)c2cccs2)C(=O)O)c(Cl)c1 [Example 327, N-[2-chloro-4-[[[(1H-indazol-4-yl)methyl]amino]carbonyl]benzoyl]-3-(thiophene-2-carbonyl)amino-L-alanine]	180		
	Cc1cc(C(=O)NCc2cccc(O)c2)cc(C)c1C(=O)N[C@@H](CNC(=O)c1cccs1)C(=O)O [Example 330]	32		
	Cc1cc(C(=O)N[C@H](C)c2cccc3ccccc23)cc(C)c1C(=O)N[C@@H](CNC(=O)c1cccs1)C(=O)O [Example 333]	180		
	Cc1cc(C(=O)NCc2cccc(O)c2)cc(C)c1C(=O)N[C@@H](CNC(=O)c1ccsc1)C(=O)O [Example 336, N-[2,6-dimethyl-4-[[[(3-hydroxyphenyl)methyl]amino]carbonyl]benzoyl]-3-(thiophene-3-carbonyl)amino-L-alanine]	33		
	Cc1cc(C(=O)NCc2cccc(O)c2)cc(C)c1C(=O)N[C@@H](CNC(=O)c1cc(F)cc(F)c1)C(=O)O [Example 337, N-[2,6-dimethyl-4-[[[(3-hydroxyphenyl)methyl]amino]carbonyl]benzoyl]-3-(3,5-difluorobenzoylamino)-L-alanine]	59		
	Cc1cc(C(=O)NCc2cccc(O)c2)cc(Cl)c1C(=O)N[C@@H](CNC(=O)c1ccsc1)C(=O)O [Example 339, N-[2-chloro-4-[[[(3-hydroxyphenyl)methyl]amino]carbonyl]-6-methylbenzoyl]-3-[(thiophene-3-carbonyl)amino]-L-alanine]	29		
	Cc1cc(C(=O)NCc2cccc(O)c2)cc(Cl)c1C(=O)N[C@@H](CNC(=O)c1cc(F)cc(F)c1)C(=O)O [Example 340, N-[2-chloro-4-[[[(3-hydroxyphenyl)methyl]amino]carbonyl]-6-methylbenzoyl]-3-[(3,5-difluorobenzoyl)amino]-L-alanine]	36		
	O=C(NCc1cccc(O)c1)c1cc(Cl)c(C(=O)N[C@@H](CNC(=O)c2cccs2)C(=O)O)c(Cl)c1 [Example 342, N-[2,6-dichloro-4-[[[(3-hydroxyphenyl)methyl]amino]carbonyl]benzoyl]-3-[(thiophene-2-carbonyl)amino]-L-alanine]	27		
	O=C(NCc1cccc(O)c1)c1cc(Cl)c(C(=O)N[C@@H](CNC(=O)c2ccsc2)C(=O)O)c(Cl)c1 [Example 343, N-[2,6-dichloro-4-[[[(3-hydroxyphenyl)methyl]amino]carbonyl]benzoyl]-3-[(thiophene-3-carbonyl)amino]-L-alanine]	30		
	O=C(NCc1cccc(O)c1)c1cc(Cl)c(C(=O)N[C@@H](CNC(=O)c2cc(F)cc(F)c2)C(=O)O)c(Cl)c1 [Example 344, N-[2,6-dichloro-4-[[[(3-hydroxyphenyl)methyl]amino]carbonyl]benzoyl]-3-[(3,5-difluorobenzoyl)amino]-L-alanine]	34		
	O=C(NCc1cccc(O)c1)c1cc(Cl)c(C(=O)N[C@@H](CNC(=O)c2cc(O)cc(O)c2)C(=O)O)c(Cl)c1 [Example 345, N-[2,6-dichloro-4-[[[(3-hydroxyphenyl)methyl]amino]carbonyl]benzoyl]-3-(3,5-dihydroxybenzoylamino)-L-alanine]	2		
